{
  "source": "patent US6506552B2",
  "about": "“Amino acid-trehalose composition” (Meiji Dairies Corporation, priority 1998, dated 2003)",
  "assay": "Forced swimming of mice in a running water pool after oral administration; blood lactic acid, blood sugar and free fatty acid levels",
  "type": "in vivo, mice (male; ddY)",
  "description": "This experiment was carried out according to the method disclosed in Jpn. J. Phys. Fitness Sports Med., 1995, 44:225-238. More specifically, mice (male; ddY) (6-week-old; 5 animals per group) were fasted at room temperature for 16 hours, followed by oral administration of a 1.8% by weight aqueous solution containing the composition VAAM or HVAAM as set forth in Table 1 or trehalose; an aqueous solution containing 1.8% by weight of VAAM and 2% by weight of trehalose; or an aqueous solution containing 1.8% by weight of VAAM analogue as set forth in Table 1 and 2% by weight of trehalose in an amount of 37.5 μl/g body weight and thereafter giving the mice a rest at room temperature for 30 minutes. Then the mice were forced to swim in a running water pool (a water tank having a diameter of 32 cm and a depth of 30 cm, which was filled with water maintained at 35° C. and in which the water was circulated at a rate of 8 m/min using a circulator) for 30 minutes. After forcing the mice to swim, they were inspected for the lactic acid level in the blood, the blood sugar (glucose) level and the free fatty acid level in the blood.\nThe lactic acid level in the blood was determined using a clinical reagent available from Sigma Company, by measuring absorbance at 340 nm due to NADH, each molecule of which was formed when lactic acid was converted into pyruvic acid because of the action of lactic acid dehydrogenase. The free fatty acid level in the serum was determined by centrifuging the collected blood and then quantitatively analyzing the fatty acids present in the supernatant. More specifically, the hydrogen peroxide formed by the action of acyl-CoA synthetic enzyme and acyl-CoA oxidase was reacted with a peroxidase, followed by determination of the absorbance at 550 nm due to the stained 3-methyl-N-ethyl-N-(2-hydroxyethyl)aniline and 4-aminoantipyrine to thus determine the free fatty acid level.",
  "data": [
    {"smiles": "OC[C@H]1O[C@H](O[C@H]2O[C@H](CO)[C@@H](O)[C@H](O)[C@H]2O)[C@H](O)[C@@H](O)[C@@H]1O", "note": "[Tre, α, α-trehalose]", "values": [
      {"measurement": "Blood Sugar Level", "setting": "blood glucose, mice fasted 16 h, oral 37.5 μl/g body weight, 30 min rest, after 30 min forced swimming", "value": 83.14, "unit": "mg/dL"},
      {"measurement": "Lactic Acid Level", "setting": "blood, mice fasted 16 h, oral 37.5 μl/g body weight, 30 min rest, after 30 min forced swimming", "value": 46.69, "unit": "mg/dL"},
      {"measurement": "NEFA", "setting": "free fatty acid in serum, mice fasted 16 h, oral 37.5 μl/g body weight, 30 min rest, after 30 min forced swimming", "value": 0.97, "unit": "mEq/l"},
      {"measurement": "free fatty acid level in the blood compared with the group to which 1.8% VAAM was administered", "setting": "mice, after 30 min swimming, FIG. 3, p<0.05", "value": "significantly higher"},
      {"measurement": "lactic acid level in the blood compared with the group to which VAAM was administered", "setting": "mice, after load of swimming over 30 minutes, FIG. 1", "value": "did not show any significant difference"}
    ]}
  ]
}
